According to US6875451B2, “Compositions and methods for the treatment of primary and metastatic neoplastic diseases using arsenic compounds” (PolaRx Biopharmaceuticals Inc., priority 1997, dated 2005):

Columns and labels:
Format in all cases: cell-based
DU-145 = experiment: SRB growth assay, 2 days exposure, prostate cancer
Experimental: (§1) Arsenic trioxide (1 mg/ml, 10 mg/ampoule, manufactured by Taylor Pharmaceuticals, Decatur, Ill.) was tested at five concentrations each at 10-fold dilutions, i.e., 10^−5, 10^−6, 10^−7, 10^−8 and 10^−9 μg/ml.
(§2) The in vitro tests were performed by incubating the test cells in the presence of the indicated concentration of arsenic trioxide under standard culture conditions for a designated period of time, which is followed by a sulforhodamine B (SRB) protein assay to estimate cell viability or growth. The cell lines are organized into subpanels according to the origin of the cell lines, e.g., leukemia, breast cancer, etc. A description of the cell lines and method of testing is described in Monk et al. (1997, Anticancer Drug Des. 12:533-41) and Weinstein et al., (1997, Science 275:343-9), which are incorporated herein in their entirety.
(§3) The measurement of an effect is expressed in Percentage Growth (PG). The measured effect of the compound on a cell line is calculated according to one or the other of the following two expressions: If (Mean ODtest−Mean ODzero)≧0. then PG=100×(Mean ODtest−Mean ODzero)/(Mean ODctrl−Mean ODzero) If (Mean ODtest−Mean ODzero)<0. then PG=100×(Mean ODtest−Mean ODzero)/(Mean ODzero where: • Mean ODzero=the average of optical density measurements of SRB-derived color just before exposure of cells to the test compounds; • Mean ODtest=the average of optical density measurements of SRB-derived color after exposure of cells to the test compound for a designated period of time; and • Mean ODctrl=the average of optical density measurements of SRB-derived color after with no exposure of cells to the test compound for a designated period of time
(§4) The first two columns describe the subpanel (e.g., leukemia) and cell line (e.g., CCRF-CEM) involved. The next two columns list the Mean ODzero and Mean ODctrl; the next five columns list the Mean ODtest for each of five different concentrations. Each concentration is expressed as the log10 (molar or μg/ml). The next five columns list the calculated PGs for each concentration. The response parameters GI50, TGI and LC50 are interpolated values representing the concentrations at which the PG is +50, 0, and −50, respectively. Sometimes these response parameters cannot be obtained by interpolation. If, for instance, all of the PGs in a given row exceed +50, then none of the three parameters can be obtained by interpolation. In such a case, the value given for each response parameter is the highest concentration tested and is preceded by a “>” sign. This practice is extended similarly to the other possible situations where a response parameter cannot be obtained by interpolation.
(§5) In the first set, the cells from 56 different cancer cell lines were exposed to five concentrations of arsenic trioxide continuously for two days prior to performing the SRB assay. In the second set, the cells from 50 different cell lines (a subset of the first 56 cell lines, plus the renal cancer cell line 786-0) were exposed continuously for six days prior to the SRB assay.

PC-3 = experiment: SRB growth assay, 2 days exposure, prostate cancer
Experimental: as §1, §2, §3, §4, §5

HS 578T = experiment: SRB growth assay, 6 days exposure, breast cancer
Experimental: as §1, §2, §3, §4, §5

MCF7 = experiment: SRB growth assay, 6 days exposure, breast cancer; details: MCF7, 6 days
Experimental: as §1, §2, §3, §4, §5

MDA-MB-231/ATCC = experiment: SRB growth assay, 6 days exposure, breast cancer
Experimental: as §1, §2, §3, §4, §5

MDA-MB-435 = experiment: SRB growth assay, 6 days exposure, breast cancer; details: MDA-MB-435, 6 days
Experimental: as §1, §2, §3, §4, §5

MDA-N = experiment: SRB growth assay, 6 days exposure, breast cancer
Experimental: as §1, §2, §3, §4, §5

NCI/ADR-RIS = experiment: SRB growth assay, 6 days exposure, breast cancer
Experimental: as §1, §2, §3, §4, §5

T-47D = experiment: SRB growth assay, 6 days exposure, breast cancer
Experimental: as §1, §2, §3, §4, §5

[1] = read-out: LC50 (the source's name)

In the case of arsenic trioxide, the TGI (DU-145) is reported as greater than 0.0126 ng/mL, the “Percent Growth” value (DU-145; log10 conc −4.9) is reported as 64% and the “Percent Growth” value (DU-145; log10 conc −5.9) is reported as 96%. For the same substance, the “Percent Growth” value (DU-145; log10 conc −6.9) was 106%, the “Percent Growth” value (DU-145; log10 conc −7.9) was 131% and the “Percent Growth” value (DU-145; log10 conc −8.9) was 91%. The TGI (PC-3) was 0.011 ng/mL, the “Percent Growth” value (PC-3; log10 conc −4.9) was −4% and the “Percent Growth” value (PC-3; log10 conc −5.9) was 67%. For the same substance, the “Percent Growth” value (PC-3; log10 conc −6.9) was 88%, the “Percent Growth” value (PC-3; log10 conc −7.9) was 91% and the “Percent Growth” value (PC-3; log10 conc −8.9) was 103%. For the same substance, the TGI (HS 578T) was 4.12E−06, the “Mean Optical Densities” value (HS 578T; Log 10 Concentration −4.9) was 0.010 and the “Percent Growth” value (HS 578T; Log 10 Concentration −4.9) was −91%. The “Mean Optical Densities” value (HS 578T; Log 10 Concentration −5.9) was 0.706, the “Percent Growth” value (HS 578T; Log 10 Concentration −5.9) was 96% and the “Mean Optical Densities” value (HS 578T; Log 10 Concentration −6.9) was 0.890. The “Percent Growth” value (HS 578T; Log 10 Concentration −6.9) was 126%, the “Mean Optical Densities” value (HS 578T; Log 10 Concentration −7.9) was 0.587 and the “Percent Growth” value (HS 578T; Log 10 Concentration −7.9) was 77%. The “Mean Optical Densities” value (HS 578T; Log 10 Concentration −8.9) was 0.777, the “Percent Growth” value (HS 578T; Log 10 Concentration −8.9) was 108% and the TGI (MCF7) was 3.66E−06. The “Mean Optical Densities” value (MCF7; Log 10 Concentration −4.9) was 0.008, the “Percent Growth” value (MCF7; Log 10 Concentration −4.9) was −73% and the “Mean Optical Densities” value (MCF7; Log 10 Concentration −5.9) was 1.683. The “Percent Growth” value (MCF7; Log 10 Concentration −5.9) was 63%, the “Mean Optical Densities” value (MCF7; Log 10 Concentration −6.9) was 2.603 and the “Percent Growth” value (MCF7; Log 10 Concentration −6.9) was 98%. For the same substance, the “Mean Optical Densities” value (MCF7; Log 10 Concentration −7.9) was 2.611, the “Percent Growth” value (MCF7; Log 10 Concentration −7.9) was 99% and the “Mean Optical Densities” value (MCF7; Log 10 Concentration −8.9) was 2.647. The “Percent Growth” value (MCF7; Log 10 Concentration −8.9) was 100%, the TGI (MDA-MB-231/ATCC) was 3.18E−06 and the “Mean Optical Densities” value (MDA-MB-231/ATCC; Log 10 Concentration −4.9) was −0.001. For the same substance, the “Percent Growth” value (MDA-MB-231/ATCC; Log 10 Concentration −4.9) was −100%, the “Mean Optical Densities” value (MDA-MB-231/ATCC; Log 10 Concentration −5.9) was 0.563 and the “Percent Growth” value (MDA-MB-231/ATCC; Log 10 Concentration −5.9) was 67%. For the same substance, the “Mean Optical Densities” value (MDA-MB-231/ATCC; Log 10 Concentration −6.9) was 0.771, the “Percent Growth” value (MDA-MB-231/ATCC; Log 10 Concentration −6.9) was 102% and the “Mean Optical Densities” value (MDA-MB-231/ATCC; Log 10 Concentration −7.9) was 0.764. The “Percent Growth” value (MDA-MB-231/ATCC; Log 10 Concentration −7.9) was 101%, the “Mean Optical Densities” value (MDA-MB-231/ATCC; Log 10 Concentration −8.9) was 0.759 and the “Percent Growth” value (MDA-MB-231/ATCC; Log 10 Concentration −8.9) was 100%. The TGI (MDA-MB-435) was 3.10E−06, the “Mean Optical Densities” value (MDA-MB-435; Log 10 Concentration −4.9) was 0.021 and the “Percent Growth” value (MDA-MB-435; Log 10 Concentration −4.9) was −62%. For the same substance, the “Mean Optical Densities” value (MDA-MB-435; Log 10 Concentration −5.9) was 0.631, the “Percent Growth” value (MDA-MB-435; Log 10 Concentration −5.9) was 40% and the “Mean Optical Densities” value (MDA-MB-435; Log 10 Concentration −6.9) was 0.865. The “Percent Growth” value (MDA-MB-435; Log 10 Concentration −6.9) was 56%, the “Mean Optical Densities” value (MDA-MB-435; Log 10 Concentration −7.9) was 1.470 and the “Percent Growth” value (MDA-MB-435; Log 10 Concentration −7.9) was 98%. The “Mean Optical Densities” value (MDA-MB-435; Log 10 Concentration −8.9) was 1.276, the “Percent Growth” value (MDA-MB-435; Log 10 Concentration −8.9) was 85% and the TGI (MDA-N) was 9.55E−06. For the same substance, the “Mean Optical Densities” value (MDA-N; Log 10 Concentration −4.9) was 0.026, the “Percent Growth” value (MDA-N; Log 10 Concentration −4.9) was −9% and the “Mean Optical Densities” value (MDA-N; Log 10 Concentration −5.9) was 1.738. For the same substance, the “Percent Growth” value (MDA-N; Log 10 Concentration −5.9) was 65%, the “Mean Optical Densities” value (MDA-N; Log 10 Concentration −6.9) was 2.606 and the “Percent Growth” value (MDA-N; Log 10 Concentration −6.9) was 98%. The “Mean Optical Densities” value (MDA-N; Log 10 Concentration −7.9) was 2.616, the “Percent Growth” value (MDA-N; Log 10 Concentration −7.9) was 99% and the “Mean Optical Densities” value (MDA-N; Log 10 Concentration −8.9) was 2.468. For the same substance, the “Percent Growth” value (MDA-N; Log 10 Concentration −8.9) was 93%, the CC50 (MDA-N; [1]) was greater than 12.6 µM and the TGI (NCI/ADR-RIS) was greater than 1.26E−05. The “Mean Optical Densities” value (NCI/ADR-RIS; Log 10 Concentration −4.9) was 0.072, the “Percent Growth” value (NCI/ADR-RIS; Log 10 Concentration −4.9) was 1% and the “Mean Optical Densities” value (NCI/ADR-RIS; Log 10 Concentration −5.9) was 1.319. For the same substance, the “Percent Growth” value (NCI/ADR-RIS; Log 10 Concentration −5.9) was 56%, the “Mean Optical Densities” value (NCI/ADR-RIS; Log 10 Concentration −6.9) was 1.951 and the “Percent Growth” value (NCI/ADR-RIS; Log 10 Concentration −6.9) was 84%. The “Mean Optical Densities” value (NCI/ADR-RIS; Log 10 Concentration −7.9) was 2.253, the “Percent Growth” value (NCI/ADR-RIS; Log 10 Concentration −7.9) was 98% and the “Mean Optical Densities” value (NCI/ADR-RIS; Log 10 Concentration −8.9) was 2.075. The “Percent Growth” value (NCI/ADR-RIS; Log 10 Concentration −8.9) was 90%, the CC50 (NCI/ADR-RIS; [1]) was greater than 12.6 µM and the TGI (T-47D) was 2.90E−06. The “Mean Optical Densities” value (T-47D; Log 10 Concentration −4.9) was 0.027, the “Percent Growth” value (T-47D; Log 10 Concentration −4.9) was −73% and the “Mean Optical Densities” value (T-47D; Log 10 Concentration −5.9) was 0.398. For the same substance, the “Percent Growth” value (T-47D; Log 10 Concentration −5.9) was 41%, the “Mean Optical Densities” value (T-47D; Log 10 Concentration −6.9) was 0.539 and the “Percent Growth” value (T-47D; Log 10 Concentration −6.9) was 61%. For the same substance, the “Mean Optical Densities” value (T-47D; Log 10 Concentration −7.9) was 0.336, the “Percent Growth” value (T-47D; Log 10 Concentration −7.9) was 33% and the “Mean Optical Densities” value (T-47D; Log 10 Concentration −8.9) was 0.883. For the same substance, the “Percent Growth” value (T-47D; Log 10 Concentration −8.9) was 108%.
